This note sets out measurements from PubChem BioAssay (NCI).

Molecules are shown by their SMILES.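 These data come from cells grown in 96-well plates and exposed to compound for 48 hours at five concentrations. GI50 = concentration required for 50% inhibition of growth. The concentration for full growth arrest is given as TGI.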 A value given as a limit tells only on which side of the number the result lay.

Test systems include OVCAR-4 ovarian; MDA-MB-435; CAKI-1 renal; NCI/ADR-RES ovarian; PC-3 prostate; HOP-92 NSCLC; U251 CNS; MALME-3M melanoma; SR leukemia; RPMI-8226 leukemia.
What all share (experiment): DTP human tumour cell line panel, 48 h

One may read the TGI as the concentration at which net growth stops. A high value points to less potent growth arrest. For the molecule `COc1cc(C)c(C2NC(=O)c3ccccc3N2)cc1C` (stereo unspecified), the TGI in the experiment on OVCAR-4 ovarian is above 82.9 µM; with MDA-MB-435 it was 0.209 µM; in the experiment on CAKI-1 renal, 16.2 µM; with NCI/ADR-RES ovarian it was 0.679 µM; in the experiment on PC-3 prostate, 15.6 µM; in the experiment with HOP-92 NSCLC it was above 86.5 µM. Moreover, the TGI in the experiment with U251 CNS is 13.9 µM; in the experiment with MALME-3M melanoma it was above 100 µM; in the experiment with SR leukemia it was above 8.5 µM.
`Cc1c2c(c(C)c3c4c(oc13)CCCC4)C=NCC2`: the concentration for total growth inhibition (TGI) in the experiment with OVCAR-4 ovarian was 54.8 µM; with RPMI-8226 leukemia, 43 µM; in the experiment with MDA-MB-435, 29.3 µM; in the experiment with CAKI-1 renal, 28 µM; in the experiment on NCI/ADR-RES ovarian, 31.2 µM; with HOP-92 NSCLC, 25.4 µM. For the same molecule, the TGI worked out at 26.8 µM in the experiment with U251 CNS, 32.6 µM in the experiment on MALME-3M melanoma and 23.4 µM with SR leukemia.
For orientation: GI50 means the concentration at which growth is held to half of that of the control. For `Cn1cc(C2=C(c3cn(C)c4ccc(Cl)cc34)C(=O)NC2=O)c2ccccc21`, the GI50 was 6 µM in the experiment with OVCAR-4 ovarian; 5.68 µM in the experiment with RPMI-8226 leukemia; 0.645 µM in the experiment on MDA-MB-435; 2.75 µM in the experiment on CAKI-1 renal; 3.82 µM in the experiment with NCI/ADR-RES ovarian; 3.88 µM in the experiment with PC-3 prostate. For the same molecule, the values for the GI50 with U251 CNS, with MALME-3M melanoma and in the experiment on SR leukemia were 2.21 µM, 6.33 µM and 1.18 µM, respectively. Moreover, the TGI is above 23.5 µM in the experiment on OVCAR-4 ovarian; 17.2 µM in the experiment on RPMI-8226 leukemia; 2.85 µM in the experiment on MDA-MB-435; above 23.7 µM in the experiment on CAKI-1 renal; above 23 µM with NCI/ADR-RES ovarian; above 23.2 µM in the experiment on PC-3 prostate. In addition, the TGI in the experiment with U251 CNS stood at 14 µM; in the experiment on MALME-3M melanoma, 19 µM; in the experiment on SR leukemia, 16.2 µM.
As to `O=C1/C(=C/c2ccccc2)CN(C(=O)CCN2CCCC2)C/C1=C\c1ccccc1`, the TGI worked out at 4.78 µM in the experiment with OVCAR-4 ovarian; 2.46 µM with RPMI-8226 leukemia; 3.24 µM with MDA-MB-435; 14.8 µM in the experiment with CAKI-1 renal; 2.42 µM with PC-3 prostate; 14.8 µM in the experiment on HOP-92 NSCLC. Moreover, the results for the TGI in the experiment on U251 CNS, with MALME-3M melanoma and with SR leukemia were 2.51 µM, 11.4 µM and 1.07 µM, respectively.
With `COc1cc2c(cc1OC)C(=O)/C(=C/c1cc(-c3ccc4c(c3)OCO4)n[nH]1)C2`, the GI50 in the experiment with OVCAR-4 ovarian is 1.11 µM; with RPMI-8226 leukemia, 0.233 µM; with MDA-MB-435, 1.73 µM; in the experiment with CAKI-1 renal it was 1.5 µM; with NCI/ADR-RES ovarian, 2.25 µM; with PC-3 prostate, 1.29 µM. The values for the GI50 in the experiment with U251 CNS, in the experiment with MALME-3M melanoma and in the experiment with SR leukemia were 1.09 µM, 1.74 µM and 0.627 µM, respectively. The TGI in the experiment with OVCAR-4 ovarian was found to be 2.36 µM; with RPMI-8226 leukemia, 0.623 µM; with MDA-MB-435 it was 3.27 µM; in the experiment on CAKI-1 renal, 3 µM; in the experiment on NCI/ADR-RES ovarian, 6.87 µM; with PC-3 prostate, 2.92 µM. The values for the TGI in the experiment on U251 CNS, with MALME-3M melanoma and in the experiment with SR leukemia were 2.31 µM, 3.6 µM and 4.11 µM, respectively.
On to `O=c1cc(N/N=C/c2ccc(F)cc2)c2cc(Cl)ccc2[nH]1`, for which the GI50 was 17 µM with RPMI-8226 leukemia; 13.4 µM with MDA-MB-435; 23.5 µM in the experiment on CAKI-1 renal; 23.5 µM with NCI/ADR-RES ovarian; 8.41 µM in the experiment with PC-3 prostate; 14 µM in the experiment on HOP-92 NSCLC. Also, the GI50 in the experiment with U251 CNS was 21.1 µM; in the experiment with MALME-3M melanoma, 14.2 µM; in the experiment with SR leukemia, 24.5 µM. For the same molecule, the TGI in the experiment on RPMI-8226 leukemia is above 100 µM; in the experiment with MDA-MB-435 it was above 100 µM; in the experiment on CAKI-1 renal, above 100 µM; with NCI/ADR-RES ovarian, above 100 µM; with PC-3 prostate, 96.3 µM; with HOP-92 NSCLC, 45.9 µM. Moreover, the TGI with U251 CNS came out at 98.4 µM; in the experiment on MALME-3M melanoma, 54 µM; in the experiment on SR leukemia, 85.6 µM.
Consider `Cc1cc(N=C2C=C(Br)C(=O)C(Br)=C2)cc(CN(CC(=O)O)CC(=O)O)c1O`, for which the TGI in the experiment on OVCAR-4 ovarian, with RPMI-8226 leukemia, in the experiment on MDA-MB-435, with CAKI-1 renal, in the experiment on NCI/ADR-RES ovarian and in the experiment on PC-3 prostate was above 100 µM in each case. For the same molecule, the TGI with U251 CNS, in the experiment on MALME-3M melanoma and with SR leukemia was above 100 µM throughout.
With `COC(=O)C1C(O)C(C)C(O)C(C)C=C(C)C2=C3C(=C(C)C(=O)c4c(O)c(c(C)c(OC(C)=O)c43)NC(=O)C(C)=C/C=C\C(C)C(O)C(C)C1O)OCO2` (stereo unspecified), the TGI with OVCAR-4 ovarian is above 100 µM; in the experiment on RPMI-8226 leukemia, 55.3 µM; with MDA-MB-435, 30.4 µM; in the experiment on NCI/ADR-RES ovarian it was above 100 µM; with PC-3 prostate, above 100 µM; in the experiment on HOP-92 NSCLC it was above 100 µM. Further, the TGI with U251 CNS is above 100 µM; in the experiment on MALME-3M melanoma it was 38.5 µM; with SR leukemia, 47.6 µM.
For `Cc1nn2c(/C=C3/C(=O)Nc4cc(Cl)ccc43)c(-c3ccccc3)nc2s1`, the GI50 was 1.59 µM in the experiment with OVCAR-4 ovarian; 3.72 µM in the experiment with MDA-MB-435; 1.87 µM with CAKI-1 renal; 3.54 µM with NCI/ADR-RES ovarian; 13.8 µM in the experiment on PC-3 prostate; 2.68 µM in the experiment with U251 CNS. Moreover, the GI50 in the experiment with MALME-3M melanoma was 1.89 µM; in the experiment on SR leukemia it was 3.09 µM. Further, the TGI with OVCAR-4 ovarian was 3.39 µM; in the experiment with MDA-MB-435, above 100 µM; with CAKI-1 renal, 4.38 µM; in the experiment on NCI/ADR-RES ovarian, above 100 µM; in the experiment with PC-3 prostate, above 100 µM; in the experiment with U251 CNS, 8.5 µM. Moreover, the TGI in the experiment on MALME-3M melanoma was 3.91 µM; in the experiment with SR leukemia it was above 100 µM.
On to `CSCCCNC(=O)c1ccc2c(c1)/C(=C/c1[nH]c(C)cc1C)C(=O)N2`, for which the GI50 in the experiment on RPMI-8226 leukemia was 1.68 µM; in the experiment with MDA-MB-435, 0.856 µM; in the experiment on PC-3 prostate it was 0.647 µM; with HOP-92 NSCLC, 1.03 µM; with U251 CNS, 0.675 µM; in the experiment with MALME-3M melanoma, 0.597 µM. Moreover, in the experiment with SR leukemia, the GI50 was 0.476 µM. For the same molecule, the TGI in the experiment with RPMI-8226 leukemia, in the experiment on MDA-MB-435, in the experiment on PC-3 prostate, in the experiment on HOP-92 NSCLC, with U251 CNS and in the experiment on MALME-3M melanoma was above 100 µM in each case. The same molecule returned a TGI with SR leukemia of 61.4 µM.
As to `CCOC(=O)CCn1ncc(Cl)c(Cl)c1=O`, the TGI with OVCAR-4 ovarian came to 2.9 µM; in the experiment with RPMI-8226 leukemia, 15.3 µM; in the experiment with CAKI-1 renal, 10.8 µM; in the experiment on HOP-92 NSCLC it was 26.2 µM; in the experiment on U251 CNS it was 17.1 µM; in the experiment with MALME-3M melanoma, 34.4 µM. The molecule also registered a TGI with SR leukemia of 7.28 µM.
